Measured values as given in patent US8940757B2, “Prasugrel in micronized, crystalline form and pharmaceutical composition thereof” (ratiopharm GmbH, priority 2010, dated 2015).
Values after ≈ are worked out from the molar mass of the structure shown.

Columns and labels:
Solubility in water = type: physicochemical; details: free base
Method: Prasugrel is administered orally as platelet aggregation inhibitor. The problem here is that Prasugrel is a sparingly soluble active ingredient.

pH-dependent degradation = type: physicochemical; details: pH values of <3, after 2 hours
Method: In addition, Prasugrel also has a strongly pH-dependent degradation. With pH values of <3 a degradation of more than 1% is observed already after 2 hours. This limits the potential excipients in the preparation of pharmaceutical formulations.

CC(=O)Oc1cc2c(s1)CCN(C(C(=O)C1CC1)c1ccccc1F)C2 (stereo not drawn) [Prasugrel, 2-acetoxy-5-(α-cyclopropylcarbonyl-2-fluorobenzyl)-4,5,6,7-tetrahydrothieno[3,2-c]pyridine]
solubility (Solubility in water): 57 µg/mL (≈ 153 µM)
degradation (pH-dependent degradation): more than 1%
